SMILES strings stand for the structures.

Results on 1 compound are retold here after paper PMC11597374, “Synthesis, Characterizations, Anti-Diabetic and Molecular Modeling Approaches of Hybrid Indole-Oxadiazole Linked Thiazolidinone Derivatives” (Pharmaceuticals, 2024).

One assay deals with α-glucosidase (Saccharomyces cerevisiae, UniProt P53341). The assay can be described thus: Alpha-glucosidase inhibition assay. To be noted: standard acarbose. Format: biochemical. The source says: (§1) In order to obtain biological profiles, all the derivatives were screened against enzymes α-amylase along and α-glucosidase.
α-glucosidase, sequence (P53341 whole entry): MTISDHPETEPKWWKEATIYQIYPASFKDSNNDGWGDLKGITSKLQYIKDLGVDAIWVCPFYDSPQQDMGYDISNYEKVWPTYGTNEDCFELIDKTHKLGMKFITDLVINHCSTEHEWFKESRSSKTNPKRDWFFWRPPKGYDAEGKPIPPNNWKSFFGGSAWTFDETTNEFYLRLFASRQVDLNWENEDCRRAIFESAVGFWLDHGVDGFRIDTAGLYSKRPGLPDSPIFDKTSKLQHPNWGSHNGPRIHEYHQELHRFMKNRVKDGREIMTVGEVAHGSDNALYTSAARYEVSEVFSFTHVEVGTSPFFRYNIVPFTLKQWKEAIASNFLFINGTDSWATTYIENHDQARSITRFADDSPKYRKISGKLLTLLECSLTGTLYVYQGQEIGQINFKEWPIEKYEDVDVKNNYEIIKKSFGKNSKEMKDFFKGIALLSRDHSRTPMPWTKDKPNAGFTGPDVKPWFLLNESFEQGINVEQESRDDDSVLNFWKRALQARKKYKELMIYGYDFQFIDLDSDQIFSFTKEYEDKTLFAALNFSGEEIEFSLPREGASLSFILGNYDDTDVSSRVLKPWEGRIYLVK
The next assay has as its target T1, α-amylase (Sus scrofa, UniProt P00690).
T1 sequence (P00690 16-511): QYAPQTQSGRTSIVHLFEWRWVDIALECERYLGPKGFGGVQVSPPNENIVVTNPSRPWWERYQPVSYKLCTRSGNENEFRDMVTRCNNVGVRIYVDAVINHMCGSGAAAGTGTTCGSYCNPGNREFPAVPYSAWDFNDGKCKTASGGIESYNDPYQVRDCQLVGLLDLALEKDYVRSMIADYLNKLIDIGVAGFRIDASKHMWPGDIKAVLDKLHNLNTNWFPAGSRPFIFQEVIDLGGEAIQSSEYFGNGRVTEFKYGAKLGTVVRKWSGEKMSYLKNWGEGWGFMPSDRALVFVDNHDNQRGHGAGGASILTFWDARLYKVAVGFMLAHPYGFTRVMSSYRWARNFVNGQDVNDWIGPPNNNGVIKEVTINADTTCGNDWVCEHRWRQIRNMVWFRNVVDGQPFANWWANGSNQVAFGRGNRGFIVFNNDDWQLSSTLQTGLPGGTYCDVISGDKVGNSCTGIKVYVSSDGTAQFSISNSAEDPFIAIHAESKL
The assay can be described thus: Alpha-amylase activity assay (starch, DNS, 540 nm). Format: biochemical. To be noted: standard acarbose.
From the text: as §1

Consider `O=C1CS/C(=N\c2nnc(CC(c3c[nH]c4ccccc34)C(F)(F)F)o2)N1c1cccc(Oc2ccccc2)c1` (centres unmarked) [Compound 14], for which, on α-glucosidase, the “Alpha Glucosidase IC50” value is reported as “non-active”. Further, at α-amylase, the “Alpha Amylase IC50” value is “non-active”.
